Test results published in patent US8183296B2, “Pesticide phenyloxy substituted phenylamidine derivatives” (Bayer Cropscience AG, priority 2005, dated 2012).

Tests used:
[1] = logP by HPLC on reversed-phase column (C 18), EEC Directive 79/831 Annex V.A8; type: physicochemical; conditions: reversed-phase HPLC column (C 18), C 18, 40° C., 0.1% aqueous formic acid and acetonitrile, read-out: logPa
Method: Temperature: 40° C.; Mobile phases: 0.1% aqueous formic acid and acetonitrile; linear gradient from 10% acetonitrile to 90% acetonitrile.
Calibration was carried out using unbranched alkan-2-ones (comprising 3 to 16 carbon atoms) with known logP values (determination of the logP values by the retention times using linear interpolation between two successive alkanones).

[2] = system: Puccinia recondita f. Sp. tritici; assay: In vivo preventive test on Puccinia recondita f. Sp. tritici (wheat brown rust); conditions: topical, 240 h, 1000 ppm of active ingredient, evaluated 10 days after inoculation, read-out: efficacy
Method: In Vivo Preventive Test on Puccinia recondita f. Sp. tritici (Wheat Brown Rust)
(§1) To produce a suitable preparation of active compound, 1 part by weight of active compound is mixed with the stated amounts of solvent and emulsifier, and the concentrate is diluted with water to the desired concentration.
To test for preventive activity, young plants are […]. After the spray coating has dried on, the plants are sprayed with the preparation of active compound at the stated rate of application. The plants remain for 24 hours in an incubation cabinet at 20° C. and a relative atmospheric humidity of 100%.
The plants are placed in a greenhouse at a temperature of approximately 20° C. and a relative atmospheric humidity of approximately 80% to promote the development of rust pustules.
The test is evaluated 10 days after the inoculation. 0% means an efficacy which corresponds to that of the control, while an efficacy of 100% means that no disease is observed.

[3] = system: Erysiphe graminis f.sp. hordei; assay: In vivo preventive test on Erysiphe graminis (powdery mildew on barley); conditions: Blumeria graminis, topical, 168 h, 1000 ppm of active ingredient, evaluated 7 days after inoculation, read-out: efficacy
Method: In Vivo Preventive Test on Erysiphe gramini (Powdery Mildew on Barley)
To produce a suitable preparation of active compound, 1 part by weight of active compound or active compound combination is mixed with the stated amounts of solvent and emulsifier, and the concentrate is diluted with water to the desired concentration.
To test for preventive activity, young plants are sprayed with the preparation of active compound or active compound combination at the stated rate of application.
After the spray coating has dried on, the plants are dusted with spores of Erysiphe graminis f.sp. hordei
The plants are placed in a greenhouse at a temperature of approximately 20° C. and a relative atmospheric humidity of approximately 80% to promote the development of mildew pustules.
(§2) The test is evaluated 7 days after the inoculation. 0% means an efficacy which corresponds to that of the control, while an efficacy of 100% means that no disease is observed.

Alternaria solani = assay: In vivo protective test on Alternaria solani (leaf spot of tomato); conditions: topical, 168 h, 500 ppm of active ingredient, evaluated 7 days after inoculation, read-out: efficacy
Method: In Vivo Protective Test on Alternaria solani (Leaf Spot of Tomato)
as §1
To test for protective activity, young plants are sprayed with the preparation of active compound at the stated rate of application. After the spray coating has dried on, the plants are inoculated with an aqueous spore suspension of Alternatia solani. The plants remain for one day in an incubation cabinet at approximately 20° C. and a relative atmospheric humidity of 100%. Then the plants are placed in an incubation cabinet at approximately 20° C. and a relative atmospheric humidity of 96%.
The test is evaluated 7 days after the inoculation. 0% means an efficacy which corresponds to that of the control while an efficacy of 100% means that no disease is observed.

Podosphaera leucotricha = assay: In vivo protective test on Podosphaera leucotricha (apples); conditions: topical, 240 h, 100 ppm of active ingredient, evaluated 10 days after inoculation, read-out: efficacy
Source text: In Vivo Protective Test on Podosphaera leucotricha (Apples) [table] […] To test for protective activity, young plants are sprayed with the preparation of active compound at the stated rate of application. After the spray coating has dried on, the plants are inoculated with an aqueous spore suspension of the causal agent of apple mildew (Podosphaera leucotricha).

Sphaerotheca fuliginea = assay: In vivo protective test on Sphaerotheca fuliginea (cucumbers); conditions: Podosphaera fuliginea, topical, 168 h, 100 ppm of active ingredient, evaluated 7 days after inoculation, read-out: efficacy
Method: In Vivo Protective Test on Sahaerotheca fuliginea (Cucumbers)
as §1
To test for protect activity, young plants are sprayed with the preparation of active compound at the stated rate of application. After the spray coating has dried on, the plants are inoculated with an aqueous spore suspension of Sphaerotheca fuliginea. The plants are then placed in a greenhouse at approximately 23° C. and a relative atmospheric humidity of approximately 70%.
as §2

Row | SMILES | chromatographic logP [1] | pest or weed control at 1000 ppm [2] [%] | pest or weed control at 1000 ppm [3] [%] | pest or weed control at 500 ppm (Alternaria solani) [%] | pest or weed control at 100 ppm (Podosphaera leucotricha) [%] | pest or weed control at 100 ppm (Sphaerotheca fuliginea) [%]
1 | Cc1cc(Oc2ccc(Cl)c(C(C)(C)C)c2)c(C)cc1/N=C/N(C)C(C)C [Example 9] | 3.42 | ≥ 70 | ≥ 70 | ≥ 70 | ≥ 70 | ≥ 70
2 | CCc1cc(Oc2cc(C)c(/N=C/N(C)CC)cc2Cl)ccc1Cl [Example 13] | 2.78 | ≥ 70 | ≥ 70 | ≥ 70 | ≥ 70 | ≥ 70
3 | CCCN(C)/C=N/c1cc(C)c(Oc2ccc(Cl)c(CC)c2)cc1C [Example 14] | 2.76 | ≥ 70 | ≥ 70 | ≥ 70 | ≥ 70 | ≥ 70
4 | CCCN(C)/C=N/c1cc(C)c(Oc2ccc(Br)c(C(C)C)c2)cc1C [Example 17] | 2.91 | ≥ 70 | ≥ 70 | ≥ 70 | ≥ 70 | ≥ 70
5 | CCN(C)/C=N/c1cc(C)c(Oc2ccc(Br)c(C(C)C)c2)cc1C [Example 19] | 3.04 | ≥ 70 | ≥ 70 | ≥ 70 | ≥ 70 | ≥ 70
6 | CCN(C)/C=N/c1cc(Cl)c(Oc2ccc(Cl)c(C(C)C)c2)cc1C [Example 20] | 2.95 | ≥ 70 | ≥ 70 | ≥ 70 | ≥ 70 | ≥ 70
7 | CCCN(C)/C=N/c1cc(Cl)c(Oc2ccc(Cl)c(C(C)C)c2)cc1C [Example 21] | 3.03 | ≥ 70 | ≥ 70 | ≥ 70 | ≥ 70 | ≥ 70
8 | Cc1cc(Oc2ccc(Cl)c(C(C)C)c2)c(Cl)cc1/N=C/N(C)C(C)C [Example 22] | 3.17 | ≥ 70 | ≥ 70 | ≥ 70 | ≥ 70 | ≥ 70
9 | CCCN(C)/C=N/c1cc(Cl)c(Oc2ccc(Cl)c(C(C)(C)C)c2)cc1C [Example 25] | 3.27 | ≥ 70 | ≥ 70 | ≥ 70 | ≥ 70 | ≥ 70
10 | CCN(C)/C=N/c1cc(Cl)c(Oc2ccc(Cl)c(C(C)(C)C)c2)cc1C [Example 26] | 3.02 | ≥ 70 | ≥ 70 | ≥ 70 | ≥ 70 | ≥ 70
11 | Cc1cc(Oc2ccc(Cl)c(C(C)C)c2)c(C)cc1/N=C/N(C)C(C)C [Example 28] | 2.74 | ≥ 70 | ≥ 70 | ≥ 70 | ≥ 70 | ≥ 70
12 | CCN(C)/C=N/c1cc(Cl)c(Oc2ccc(Br)c(C(C)C)c2)cc1C [Example 30] | 2.84 | ≥ 70 | ≥ 70 | ≥ 70 | ≥ 70 | ≥ 70
13 | CCc1cc(Oc2cc(C)c(/N=C/N(C)C(C)C)cc2C)ccc1Cl [Example 32] | 2.75 | ≥ 70 | ≥ 70 | ≥ 70 | ≥ 70 | ≥ 70
